# Source: PMC10058583, “Development of Novel Fluorinated Polyphenols as Selective Inhibitors of DYRK1A/B Kinase for Treatment of Neuroinflammatory Diseases including Parkinson’s Disease” (Pharmaceuticals, 2023)
# Experiments:
# [1] = molecular target: T1, 6xHis-tagged rat-truncated DYRK1A (residues 1-497) (Rattus norvegicus, UniProt Q63470); test: ELISA-based non-radioactive kinase assay, DYRK1A; type: biochemical; conditions: read-out: DYRK1A IC50
# T1 construct: 6xHis-tagged rat-truncated DYRK1A (residues 1-497); 6xHis; made in house
# [2] = molecular target: T2, human DYRK1B isoform p65 (GST fusion) (Homo sapiens, UniProt Q9Y463); test: ELISA-based non-radioactive kinase assay, DYRK1B; type: biochemical; conditions: 30 ng GST-DYRK1B, 60 min reaction
# T2 construct: made in house
# Protocol: (§1) DYRK1B was prepared from human DYRK1B isoform p65 as glutathione S-transferase fusion protein, and DYRK2 was prepared from human DYRK2 isoform 1 as 6xHis-tagged protein, as previously described.
# (§2) For DYRK2, the reactions were performed exactly as described for DYRK1A. For DYRK1B, the assays were similarly conducted but with 30 ng GST-DYRK1B and a kinase reaction time of 60 min.
# [3] = molecular target: T3, human DYRK2 isoform 1 (6xHis-tagged) (Homo sapiens, UniProt Q92630); test: ELISA-based non-radioactive kinase assay, DYRK2; type: biochemical
# T3 sequence (Q92630 74-601 limits assumed): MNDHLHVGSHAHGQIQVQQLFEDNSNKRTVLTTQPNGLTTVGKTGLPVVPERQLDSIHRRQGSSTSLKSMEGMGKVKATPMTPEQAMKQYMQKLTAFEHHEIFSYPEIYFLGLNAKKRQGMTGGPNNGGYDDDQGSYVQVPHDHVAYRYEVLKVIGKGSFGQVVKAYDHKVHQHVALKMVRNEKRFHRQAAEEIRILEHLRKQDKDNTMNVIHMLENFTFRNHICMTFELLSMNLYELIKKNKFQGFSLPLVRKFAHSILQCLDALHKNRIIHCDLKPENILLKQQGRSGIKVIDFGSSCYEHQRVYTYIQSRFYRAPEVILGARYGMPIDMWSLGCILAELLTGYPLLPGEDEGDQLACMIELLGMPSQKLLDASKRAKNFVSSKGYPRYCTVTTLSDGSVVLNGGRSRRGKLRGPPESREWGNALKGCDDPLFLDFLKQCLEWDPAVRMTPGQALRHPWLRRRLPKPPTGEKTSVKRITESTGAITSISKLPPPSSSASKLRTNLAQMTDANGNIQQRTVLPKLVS
# Protocol: as §1, §2
# DYRK1A = DYRK1A (Rattus norvegicus, UniProt Q63470); test: ATP competition assay on DYRK1A; type: biochemical; conditions: ATP up to 0.8 mM
# [4] = test system: LPS-induced inflammation in C57BL/6J mice; test: LPS-induced inflammation model; type: in vivo, mouse
# Protocol: Neuroinflammation is an important factor contributing to cognitive impairment and neurodegenerative diseases such as PD, and the administration of LPS is frequently used to study neuroinflammation-associated diseases in mice.
# Each group consisted of six male mice. […] Animals were pretreated for 3 days with the drug of choice; then, treatment with LPS commenced on day 0, and on the 5th day of LPS treatment, the drug was administered half an hour before LPS injection. One hour after LPS treatment, the animals were anesthetized with a mixture of ketamine, xylazine 2%, atropine, and saline (4:2.5:1:2.5). The body temperature of mice under anesthesia was maintained by applying a heating blanket and monitored using a rectal thermometer. After anesthesia, the animals underwent cardiac perfusion with ice-cold saline for three minutes (3 mL/minute via peristaltic pump) via the left ventricle. The right atrium was cut as an outflow route. The right hemisphere was post-fixed overnight in 4% PFA in PBS at 4 °C and stored in 1xPBS containing 0.1% (v/w) sodium azide at 4 °C. The left hemisphere, hippocampus, cortex, midbrain, and brainstem were microdissected, immersed in liquid nitrogen in separate tubes (with one-fifth of the rest of the brain tissue), and stored in microfuge tubes at −80°. TNFα (in both plasma and the hippocampus) was analyzed with ELISA, and the p-tau (AT-8 antibody) level was recorded in the hippocampus and cortex with WB.
# [5] = test system: MPTP-treated C57BL/6J mice; test: MPTP model for Parkinson's disease; type: in vivo, mouse
# Protocol: We tested the behavioral effect of 1c in the MPTP model for PD using both IN and PO delivery (both 25 mg/kg, BID). This is a common neurodegenerative disorder model characterized by a progressive loss of dopaminergic (DA) neurons in the […]. Several studies have shown that oxidative stress, neuroinflammation, and microglial activation play a pivotal role, at least in the progression of PD [35].
# MPTP dissolved in saline was administered via intraperitoneal injections once daily at a dosage of 30 mg/kg/day for 5 consecutive days. The control group was administered intraperitoneal injections of saline.
# The behavioral tests were performed at initiation as the baseline and 3, 6, and 9 days following the last MPTP injection. Pole test: the test consisted of a gauze-taped pole (45 cm high, 1 cm in diameter) with a small cork ball at the top. Mice were placed with their head facing upwards immediately below the ball. Two times were recorded: the time it took for the mouse to turn completely downward (T-turn) and the time it took to descend to the floor (T-total), with a cutoff limit of 60 sec. The test consisted of two trials separated by 10 min intertrial intervals, and the average time was calculated. Mice were pretrained for 3 days before MPTP injection. The rotarod test was used to assess the motor coordination and balance of animals. On the test day, the mice were habituated for 30 min in the test room before testing. The drum was slowly accelerated to a speed of 4–40 rpm for a maximum of 300 s. The latency to fall off the rotarod within this time period was recorded. The test consisted of three trials separated by 10 min intertrial intervals. The mean latency to fall off the rotarod was recorded and used for analysis. Mice were trained for 3 days before MPTP injection.
# Tissue Collection and IHC Analysis: within 2 h following the last dose, the blood of animals was collected via cardiac puncture under isoflurane-induced anesthesia. After blood collection, animals were transcardially perfused with normal saline, followed by buffered formalin fixative. Brains were removed, post-fixed, and embedded in paraffin for subsequent IHC analysis of […] (TH)-positive cells in the substantia nigra (SN).
# [6] = In vitro and in vivo safety studies (not detailed)
# [7] = PO 30 mg/kg BID, from 3 days before LPS (i.p. 750 µg/kg, 5 days)
# [8] = IN or PO 25 mg/kg BID, no difference between the two routes
# T2 sequence (Q9Y463 1-589 isoform Q9Y463-2): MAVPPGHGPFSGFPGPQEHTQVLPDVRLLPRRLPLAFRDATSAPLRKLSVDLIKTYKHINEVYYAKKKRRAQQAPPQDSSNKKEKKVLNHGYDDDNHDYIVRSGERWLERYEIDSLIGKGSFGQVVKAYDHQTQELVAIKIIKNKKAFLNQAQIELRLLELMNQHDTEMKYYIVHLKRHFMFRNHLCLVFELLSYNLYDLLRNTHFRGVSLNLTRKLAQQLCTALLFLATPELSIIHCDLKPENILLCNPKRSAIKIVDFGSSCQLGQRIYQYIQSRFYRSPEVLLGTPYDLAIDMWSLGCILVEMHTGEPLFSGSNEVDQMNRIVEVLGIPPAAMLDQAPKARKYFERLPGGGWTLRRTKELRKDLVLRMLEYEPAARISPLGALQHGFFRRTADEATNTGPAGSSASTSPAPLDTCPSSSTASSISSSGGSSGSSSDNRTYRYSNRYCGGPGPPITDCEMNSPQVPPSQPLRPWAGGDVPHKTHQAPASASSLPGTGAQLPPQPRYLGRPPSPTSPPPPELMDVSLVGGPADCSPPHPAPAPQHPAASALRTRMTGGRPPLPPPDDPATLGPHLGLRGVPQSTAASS
smiles,measurement,setting,value
COc1cc(C(=O)O[C@@H]2Cc3c(O)cc(O)cc3O[C@H]2c2cc(O)c(O)c(O)c2)c(F)c(O)c1O [Compound 1c],IC50,[1],0.073 µM
same,IC50,[2],0.079 µM
same,IC50,[3],0.331 µM
same,mode of inhibition with varying ATP,DYRK1A,non-ATP-competitive inhibitor
same,inhibition of tau phosphorylation,"[4]; IN 30 mg/kg BID, LPS i.p. 750 µg/kg",lack of efficacy
same,tau phosphorylation in the hippocampus,"[4]; PO 30 mg/kg BID, LPS i.p. 750 µg/kg",reduced tau phosphorylation
same,TNFα accumulation in plasma,[4]; [7],significantly (p < 0.05) decreasing
same,TNFα accumulation in the brain,[4]; [7],significantly (p < 0.05) decreasing
same,tyrosine-hydroxylase-positive cells in the substantia nigra pars compacta,[5]; IN 25 mg/kg BID,failed to show any histological difference
same,"movement behavior, pole test",[5]; [8],completely restored
same,"movement behavior, rotarod test",[5]; [8],completely restored
same,tyrosine-hydroxylase-positive cells in the substantia nigra pars compacta,[5]; PO 25 mg/kg BID,protected from MPTP toxicity
same,"in vitro and in vivo safety studies, outcome",[6],have not reveled any concerns
